According to PubChem BioAssay AID2060504 (Molecular Pharmacology Branch, DTP, NCI, 2025):

Tested on: 636577-100-R-J1-PDC complex spheroid viability
Assay: Anticancer human tumor 636577-100-R-J1-PDC patient-derived endometrial adenocarcinoma cell line growth inhibition [GQUAD]
Details: for IC50: curve of first compound; for viability, T/C: stronger effect = lower value
Source text: DNA G-quadruplex Stabilizer Agents in Combinations in Complex Spheroids
A high-throughput screen of multi-cell type tumor spheroids was designed to identify active combinations of DNA G-quadruplex stabilizer agents and targeted small molecules. Complex spheroids include a stromal component modeled by human endothelial cells (HUVEC) and fibroblasts modeled by human mesenchymal stem cells (MSCs). The concentration ranges selected for each drug and investigational agent were based upon clinically achievable concentrations if the clinical Cmax of the agent was known.
Compounds. The drugs and investigational agents: pidnarulex (CX-5461; NSC782164), APTO-253 (NSC789042), BRACO-19 (NSC847499), peposertib (NSC802822), ceralasertib (NSC780249), elimusertib (NSC800525), camonsertib (NSC841442), AZD-1390 (NSC803789), olaparib (NSC753686), talazoparib (NSC767125), ART-558 (NSC835418), sotorasib (NSC818433), MRTX-1133 (NSC836407), SN-38 (NSC673596), topotecan (NSC609699), etoposide (NSC141540), doxorubicin (NSC123127), gemcitabine (NSC613327), 5-fluorouracil (NSC19893), paclitaxel (NSC125973), vemurafenib (NSC761431), panobinostat (NSC761190), R-306465 (JNJ-16241199; NSC773264), adavosertib (NSC754352), TP-3654 (NSC805149), carboplatin (NSC241240), KSQ-4279 (NSC840948), and staurosporine (NSC755774) were obtained from the National Cancer Institute (NCI) Developmental Therapeutics Program Chemical Repository (34). The FDA-approved anticancer drug set is available from the NCI Developmental Therapeutics Program. […] The stock solutions were prepared in dimethyl sulfoxide (DMSO, Sigma-Aldrich, St. Louis, MO, cat. D2650) at 800-fold the tested concentration and stored at -70 degrees C prior to their use. All drugs and investigational agents were tested over a range starting from a high concentration at or near the clinical Cmax and decreasing in half-log increments. If the clinical Cmax for an agent had not been determined, the highest concentration tested was 10 microM.
2.3 Cell Culture. All cells were maintained in an incubator at 37 degrees C and 5% CO2 with 95% humidity. The PDC lines were cultured according to standard operating procedures established by the NCI PDMR. All PDCs were thawed and cultured in Matrigel-coated flasks prepared with a working solution of 1X Ham's F-12 nutrient mix, without supplementation (Invitrogen, cat. 11765054), 100 U/mL penicillin-streptomycin (Invitrogen, cat. 15140122), and 2.5% Matrigel (Corning Inc., cat. 354248) for the first three passages. The 857933-349-R-J2-PDC line was cultured in 6C/Colon 1B media, which includes advanced DMEM/F-12 (Thermo Fisher Scientific, cat. 12634028), 10 mM HEPES (Thermo Fisher Scientific, cat. 15630080), 1X GlutaMAX supplement (Thermo Fisher Scientific, cat. 35050061), 0.1 mg/mL primocin (InvivoGen, cat. ant-pm-2), 10% defined fetal bovine serum, heat inactivated (HyClone Laboratories Inc., cat. SH30070.03HI), 50% L-WRN conditioned media (ATCC, cat. CRL-3276), 1.25 mM N-Acetyl-L-cysteine (Sigma-Aldrich, cat. A9165), 10 mM nicotinamide (Sigma-Aldrich, cat. N0636), 1X B-27 supplement (Thermo Fisher Scientific, cat. 17504044), 1X N-2 supplement (Thermo Fisher Scientific, cat. 17502048), 10 microM Y-27632 dihydrochloride (Tocris Bioscience, cat. 1254), and 50 ng/mL human EGF recombinant protein (Thermo Fisher Scientific, cat. PHG0311). The 485176-168-R4-J1-PDC line was cultured in Panc media, which includes all 6C/Colon 1B media components plus 100 ng/mL human FGF-10 (Thermo Fisher Scientific, cat. 100-26), 500 nM SB-431542 (Selleckchem, cat. S1067), and gastrin (Tocris, cat. 3006).
[…]
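Further: viability read after seven days of drug exposure.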
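Wherever viability, T/C is given: luminescence signal used as a proxy for viable cells; 100% = DMSO vehicle control wells.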

**Q.** Which results are given for `CC(=O)O[C@H]1C(=O)[C@@]2(C)[C@H]([C@H](OC(=O)c3ccccc3)[C@]3(O)C[C@H](OC(=O)[C@H](O)[C@@H](NC(=O)c4ccccc4)c4ccccc4)C(C)=C1C3(C)C)[C@]1(OC(C)=O)CO[C@@H]1C[C@@H]2O` + CN(C)c1ccc(Nc2c3ccc(NC(=O)CCN4CCCC4)cc3nc3cc(NC(=O)CCN4CCCC4)ccc23)cc1?
**A.** IC50 (second compound 0.0316 µM): < 31.6 nM; IC50 (second compound 0.1 µM): < 31.6 nM; IC50 (second compound 0.316 µM): < 31.6 nM; IC50 (second compound 1 µM): < 31.6 nM; IC50 (second compound 3.16 µM): < 31.6 nM; IC50 (second compound 10 µM): < 31.6 nM; viability, T/C (second compound 0.0316 µM, first compound 0.0316 µM): 20.1%; viability, T/C (second compound 0.0316 µM, first compound 0.1 µM): 12.8%; viability, T/C (second compound 0.0316 µM, first compound 0.316 µM): 13.3%; viability, T/C (second compound 0.0316 µM, first compound 1 µM): 11.8%; viability, T/C (second compound 0.0316 µM, first compound 3.16 µM): 11.5%; viability, T/C (second compound 0.0316 µM, first compound 10 µM): 10.8%; viability, T/C (second compound 0.1 µM, first compound 0.0316 µM): 18.8%; viability, T/C (second compound 0.1 µM, first compound 0.1 µM): 13.5%; viability, T/C (second compound 0.1 µM, first compound 0.316 µM): 11.4%; viability, T/C (second compound 0.1 µM, first compound 1 µM): 8.93%; viability, T/C (second compound 0.1 µM, first compound 3.16 µM): 9.82%; viability, T/C (second compound 0.1 µM, first compound 10 µM): 8.97%; viability, T/C (second compound 0.316 µM, first compound 0.0316 µM): 15.9%; viability, T/C (second compound 0.316 µM, first compound 0.1 µM): 12.3%; viability, T/C (second compound 0.316 µM, first compound 0.316 µM): 10.4%; viability, T/C (second compound 0.316 µM, first compound 1 µM): 12.6%; viability, T/C (second compound 0.316 µM, first compound 3.16 µM): 9.5%; viability, T/C (second compound 0.316 µM, first compound 10 µM): 10.1%; viability, T/C (second compound 1 µM, first compound 0.0316 µM): 15.9%; viability, T/C (second compound 1 µM, first compound 0.1 µM): 12.8%; viability, T/C (second compound 1 µM, first compound 0.316 µM): 12.5%; viability, T/C (second compound 1 µM, first compound 1 µM): 11.6%; viability, T/C (second compound 1 µM, first compound 3.16 µM): 10%; viability, T/C (second compound 1 µM, first compound 10 µM): 10.4%; viability, T/C (second compound 3.16 µM, first compound 0.0316 µM): 16.2%; viability, T/C (second compound 3.16 µM, first compound 0.1 µM): 12.7%; viability, T/C (second compound 3.16 µM, first compound 0.316 µM): 13.4%; viability, T/C (second compound 3.16 µM, first compound 1 µM): 11.6%; viability, T/C (second compound 3.16 µM, first compound 3.16 µM): 11.8%; viability, T/C (second compound 3.16 µM, first compound 10 µM): 11.2%; viability, T/C (second compound 10 µM, first compound 0.0316 µM): 4.59%; viability, T/C (second compound 10 µM, first compound 0.1 µM): 3.8%; viability, T/C (second compound 10 µM, first compound 0.316 µM): 2.57%; viability, T/C (second compound 10 µM, first compound 1 µM): 3.21%; viability, T/C (second compound 10 µM, first compound 3.16 µM): 3.16%; viability, T/C (second compound 10 µM, first compound 10 µM): 2.15%
